These results are taken from US3970703A, “Phenylacetic acid derivatives” (Sumitomo Chemical Company, Limited, priority 1970, dated 1976).

One experiment relates to housefly adults. The class given is in vivo.
For experiment [1] the following is noted: in words, background; cited from earlier work.
The next experiment deals with house fly adults. Briefly: Oil spray test, Campbell's turn table method (Test Examples 1 and 2). Particulars: Musca domestica, topical, 24 h, read-out: killing ratio.
Setting [2] is: insecticide alone, no synergist.
The mark [3] stands for this setting: insecticide alone, no synergist (reference 1.0).
Setting [4] is: 3,4-dimethylphenyl-N-methylcarbamate + synergist, relative to insecticide alone.
[5] abbreviates: 3,4-dimethylphenyl-N-methylcarbamate + synergist, three batches.
Where [6] appears, read: allethrin + 5 times weight of synergist, relative to allethrin alone.
Setting [7] is: allethrin + 5 times weight of synergist, three batches.
[8] abbreviates: natural pyrethrin + 5 times weight of synergist, relative to natural pyrethrin alone.
The mark [9] stands for this setting: natural pyrethrin + 5 times weight of synergist, three batches.
Setting [10] is: present compound alone, no insecticide.
The mark [11] stands for this setting: tetramethrin + 5 times weight of synergist, relative to tetramethrin alone of same batch.
Setting [12] is: tetramethrin + 5 times weight of synergist, three batches (tetramethrin alone 0.530, 0.520, 0.570).

Molecules are shown by their SMILES. Values joined by “and” are separate entries in the source; they are usually repeats but may differ in a detail not shown here. Equal entries are not always repeated. Where two headings read alike, the source gives them in different places. Some results are limits rather than exact numbers.

In the case of `CNC(=O)Oc1ccc(C)c(C)c1` [3,4-Dimethylphenyl-N-methylcarbamate, 3,4-dimethylphenyl-N-methylcarbamate, reference compound], in the experiment on housefly adults (setting [2]), the LD50 is given as ≥ 5 γ/Fly. The “Ratio of enhancing the killing effect” value in the experiment on housefly adults (setting [3]) is 1.0.
On to `C=CCC1=C(C)C(OC(=O)C2C(C=C(C)C)C2(C)C)CC1=O` (stereo not shown) [Allethrin, reference compound], for which, in the experiment on housefly adults (setting [2]), the LD50 was 0.560 γ/Fly and 0.60 γ/Fly and 0.610 γ/Fly. In addition, the “Ratio of enhancing the killing effect” value in the experiment with housefly adults (setting [3]) amounted to 1.0.
As for `CNC(=O)Oc1cccc2ccccc12` [Carbaryl, reference compound], in the experiment with housefly adults (setting [3]), the “Ratio of enhancing the killing effect” value is given as 1.0.
With `CC(C)=CC1C(C(=O)OCc2coc(Cc3ccccc3)c2)C1(C)C` (stereo not shown) [Chrysron, 5-benzyl-3-furylmethyl chrysanthemate, reference compound], the LD50 in the experiment on housefly adults (in vivo) was 0.026 γ/Fly and 0.024 γ/Fly and 0.027 γ/Fly. Besides, the “Ratio of enhancing the killing effect” value in the experiment with housefly adults (setting [3]) is 1.0.
Take `CCCCC(CC)CN1C(=O)C2C3C=CC(C3)C2C1=O` (stereo not shown) [MGK-264, N-(2-ethylhexyl)bicyclo[2,2,1]-hept-5-ene-anhydro-phthalic acid-2,3-dicarboxyimide]: the “synergistic effect on allethrin compared with natural pyrethrin” value in experiment [1] was “more excellent synergistic effect on allethrin than that on natural pyrethrin”.
Turning to `CCCCOCCOCCOCc1cc2c(cc1CCC)OCO2` [Piperonyl butoxide, α-[2-(butoxyethoxy)-ethoxy]-4,5-methylene-dioxy-2-propyltoluene], in experiment [1], the “synergistic effect on allethrin and other synthetic pyrethroids” value is reported as “somewhat inferior”; the “synergistic effect on natural pyrethrin” value was “prominent synergistic effect”.
With `C#CCOC(=O)C(CCC)(OC)c1ccccc1` (stereo not drawn) [Present compound (1), Propargyl α-(n-propyl)-α-methoxyphenylacetate], the “Ratio of enhancing the killing effect” value in the experiment on housefly adults (setting [4]) is not below 18; in the experiment with housefly adults (setting [6]), 6.6; in the experiment on housefly adults (setting [8]) it was 4.9; with housefly adults (setting [11]), 7.8. In addition, the LD50 in the experiment on housefly adults (setting [5]) was 0.278 γ/Fly; with housefly adults (setting [7]), 0.085 γ/Fly; with housefly adults (setting [9]) it was 0.082 γ/Fly; in the experiment on housefly adults (setting [10]), ≥ 2 γ/Fly; in the experiment on housefly adults (setting [12]), 0.068 γ/Fly.
As for `C#CCOC(=O)C(OC)(c1ccccc1)C(C)C` (stereo not drawn) [Present compound (2), Propargyl α-(iso-propyl)-α-methoxyphenylacetate], the LD50 is on record as ≥ 2 γ/Fly in the experiment on housefly adults (setting [10]) and 0.061 γ/Fly in the experiment on housefly adults (setting [12]). Moreover, in the experiment on housefly adults (setting [11]), the “Ratio of enhancing the killing effect” value was determined as 8.7.
Regarding `C#CCOC(=O)C(CC=C)(OC)c1ccccc1` (stereo not drawn) [Present compound (3), Propargyl α-allyl-α-methoxyphenylacetate], the “Ratio of enhancing the killing effect” value is on record as not below 18 in the experiment on housefly adults (setting [4]), 7.4 in the experiment with housefly adults (setting [6]), 5.1 in the experiment with housefly adults (setting [8]) and 8.3 with housefly adults (setting [11]). For the same compound, the LD50 in the experiment on housefly adults (setting [5]) is 0.273 γ/Fly; with housefly adults (setting [7]), 0.076 γ/Fly; in the experiment on housefly adults (setting [9]), 0.079 γ/Fly; in the experiment on housefly adults (setting [12]) it was 0.064 γ/Fly.
On to `C#CCOC(=O)C(CCC=C)(OC)c1ccccc1` (stereo not drawn) [Present compound (4), Propargyl α-butenyl-α-methoxyphenylacetate], for which the “Ratio of enhancing the killing effect” value with housefly adults (setting [11]) worked out at 7.5. Moreover, in the experiment on housefly adults (setting [12]), the LD50 is given as 0.071 γ/Fly.
Turning to `C#CCOC(=O)C(CC=C)(OCC)c1ccccc1` (stereo not drawn) [Present compound (5), Propargyl α-allyl-α-ethoxyphenylacetate], the “Ratio of enhancing the killing effect” value in the experiment on housefly adults (setting [4]) is not below 21; in the experiment on housefly adults (setting [6]), 9.8; in the experiment on housefly adults (setting [8]), 5.6; in the experiment with housefly adults (setting [11]), 12.5. Besides, the LD50 in the experiment on housefly adults (setting [5]) is reported as 0.238 γ/Fly; in the experiment on housefly adults (setting [7]) it was 0.057 γ/Fly; in the experiment with housefly adults (setting [9]), 0.071 γ/Fly; in the experiment on housefly adults (setting [12]), 0.042 γ/Fly.
In the case of `C#CCOC(=O)C(CC(C)C)(OC)c1ccccc1` (stereo not drawn) [Present compound (6), Propargyl α-(iso-butyl)-α-methoxyphenylacetate], the “Ratio of enhancing the killing effect” value in the experiment on housefly adults (setting [11]) turned out to be 8.0. Moreover, in the experiment with housefly adults (setting [12]), the LD50 is recorded as 0.066 γ/Fly.
Regarding `C#CCOC(=O)C(CC=C)(OCCC)c1ccccc1` (stereo not drawn) [Present compound (7), Propargyl α-allyl-α-(n-propyloxy)-phenylacetate], in the experiment on housefly adults (setting [11]), the “Ratio of enhancing the killing effect” value is on record as 7.9. Besides, the LD50 with housefly adults (setting [12]) is on record as 0.067 γ/Fly.
The corresponding values for `C#CCOC(=O)C(CCCCCC)(OC)c1ccccc1` (stereo not drawn) [Present compound (8), Propargyl α-(n-hexyl)-α-methoxyphenylacetate] are 4.5 and 0.128 γ/Fly.
With `C#CCOC(=O)C(OC)(c1ccccc1)C1CCCCC1` (stereo not drawn) [Present compound (9), Propargyl α-cyclohexyl-α-methoxyphenylacetate], in the experiment with housefly adults (setting [11]), the “Ratio of enhancing the killing effect” value is listed as 4.8. The LD50 with housefly adults (setting [12]) is reported as 0.111 γ/Fly.
As to `C#CCCOC(=O)C(CC=C)(OC)c1ccccc1` (stereo not shown) [Present compound (10)], the LD50 was ≥ 2 γ/Fly in the experiment on housefly adults (setting [10]) and 0.077 γ/Fly in the experiment on housefly adults (setting [12]). In the experiment with housefly adults (setting [11]), the “Ratio of enhancing the killing effect” value was found to be 6.9.
Consider `C#CCOC(=O)C(Cc1ccccc1)(OC)c1ccccc1` (stereo not drawn) [Present compound (11), Propargyl α-benzyl-α-methoxyphenylacetate], for which the “Ratio of enhancing the killing effect” value with housefly adults (setting [4]) was not below 24; in the experiment on housefly adults (setting [6]), 10.0; in the experiment with housefly adults (setting [8]), 6.5; in the experiment with housefly adults (setting [11]), 11.3. Also, the LD50 with housefly adults (setting [5]) is 0.21 γ/Fly; in the experiment with housefly adults (setting [7]), 0.060 γ/Fly; in the experiment with housefly adults (setting [9]), 0.054 γ/Fly; in the experiment on housefly adults (setting [12]), 0.046 γ/Fly.
For the compound `C#CCOC(=O)C(Cc1ccccc1)(OCC)c1ccccc1` (stereo not drawn) [Present compound (12), Propargyl α-benzyl-α-ethoxyphenylacetate], the “Ratio of enhancing the killing effect” value with housefly adults (setting [11]) is given as 10.0. Besides, the LD50 in the experiment with housefly adults (setting [12]) was 0.052 γ/Fly.
In the case of `C=CCOC(=O)C(Cc1ccccc1)(OC)c1ccccc1` (stereo not drawn) [Present compound (13), Allyl α-benzyl-α-methoxyphenylacetate], the “Ratio of enhancing the killing effect” value with housefly adults (setting [11]) is listed as 10.4. Moreover, the LD50 in the experiment with housefly adults (setting [12]) was 0.050 γ/Fly.
The corresponding values for `C#CCOC(=O)C(OC)(c1ccccc1)c1cccs1` (stereo not drawn) [Present compound (14), Propargyl α-(2-thienyl)-α-methoxyphenylacetate] are 8.1 and 0.064 γ/Fly.
On to `C#CCC(OC)(C(=O)OCC=C)c1ccccc1` (stereo not drawn) [Present compound (15), Allyl α-propargyl-α-methoxyphenylacetate], for which the “Ratio of enhancing the killing effect” value in the experiment with housefly adults (setting [11]) is 8.7. Also, the LD50 in the experiment on housefly adults (setting [12]) was 0.060 γ/Fly.
Consider `C#CCCOC(=O)C(OC)(c1ccccc1)c1ccccc1` [Present compound (16)], for which the “Ratio of enhancing the killing effect” value was not below 20 in the experiment on housefly adults (setting [4]), 7.2 in the experiment with housefly adults (setting [6]), 5.5 in the experiment on housefly adults (setting [8]) and 9.5 in the experiment on housefly adults (setting [11]). Also, the LD50 in the experiment with housefly adults (setting [5]) is reported as 0.25 γ/Fly; with housefly adults (setting [7]) it was 0.083 γ/Fly; in the experiment on housefly adults (setting [9]), 0.064 γ/Fly; with housefly adults (setting [12]) it was 0.055 γ/Fly.
With `C#CCCCCOC(=O)C(CCC)(OCC)c1ccccc1` (stereo not shown) [Present compound (17)], the “Ratio of enhancing the killing effect” value with housefly adults (setting [11]) was determined as 8.3. Moreover, the LD50 in the experiment on housefly adults (setting [12]) is 0.063 γ/Fly.
On to `C#CCCOC(=O)C(OCCC#C)(c1ccccc1)c1ccccc1` [Present compound (18)], for which the “Ratio of enhancing the killing effect” value in the experiment with housefly adults (setting [11]) came to 11.1. In addition, the LD50 in the experiment on housefly adults (setting [12]) was 0.047 γ/Fly.
Consider `C#CCOCC(CCC)(OC)c1ccccc1` (stereo not drawn) [Present compound (19), Propargyl α-(n-propyl)-α-methoxyphenethyl ether], for which, in the experiment on housefly adults (setting [11]), the “Ratio of enhancing the killing effect” value worked out at 8.5. For the same compound, in the experiment on housefly adults (setting [12]), the LD50 was 0.067 γ/Fly.
With `C#CCOCC(CC=C)(OC)c1ccccc1` (stereo not shown) [Present compound (20)], the “Ratio of enhancing the killing effect” value in the experiment with housefly adults (setting [4]) is listed as not below 19; with housefly adults (setting [6]) it was 9.8; with housefly adults (setting [8]), 7.0; in the experiment on housefly adults (setting [11]), 10.8. Besides, the LD50 with housefly adults (setting [5]) was 0.252 γ/Fly; in the experiment with housefly adults (setting [7]), 0.062 γ/Fly; in the experiment with housefly adults (setting [9]), 0.056 γ/Fly; in the experiment with housefly adults (setting [12]), 0.053 γ/Fly.
As for `C#CCOCC(CC=C)(OCC)c1ccccc1` (stereo not drawn) [Present compound (21), Propargyl α-allyl-α-ethoxyphenethyl ether], the “Ratio of enhancing the killing effect” value in the experiment on housefly adults (setting [11]) came to 9.5. For the same compound, the LD50 in the experiment with housefly adults (setting [12]) is reported as 0.060 γ/Fly.
Take `C#CCOCC(CC(C)C)(OCC=C)c1ccccc1` (stereo not drawn) [Present compound (22), Propargyl α-(iso-butyl)-α-allyloxyphenethyl ether]: in the experiment with housefly adults (setting [11]), the “Ratio of enhancing the killing effect” value stood at 10.2. Further, in the experiment on housefly adults (setting [12]), the LD50 is reported as 0.056 γ/Fly.
As for `C#CCCOCC(CCC)(OC)c1ccccc1` (stereo not shown) [Present compound (26)], the “Ratio of enhancing the killing effect” value with housefly adults (setting [11]) turned out to be 7.0. In addition, the LD50 in the experiment on housefly adults (setting [12]) is 0.081 γ/Fly.
The corresponding values for `C#CCCCCOCC(CCC)(OC)c1ccccc1` (stereo not shown) [Present compound (27)] are 7.0 and 0.081 γ/Fly.
Take `CC(C)=CC1C(C(=O)OCN2C(=O)C3=C(CCCC3)C2=O)C1(C)C` (stereo not shown) [Tetramethrin, N-chrysanthemoxymethyl-3,4,5,6-tetrahydrophthalimide, reference compound]: the mortality at 0.05 % with house fly adults worked out at 52%. Further, the LD50 with housefly adults (setting [2]) is 0.530 γ/Fly and 0.520 γ/Fly and 0.570 γ/Fly. Further, in the experiment on housefly adults (setting [3]), the “Ratio of enhancing the killing effect” value was determined as 1.0.
